Measured values taken from PMC6344228 (Cell Chemical Biology, 2019).
Several values for one entry are separate records, joined by “and”; a condition that tells them apart may be missing. Equal values may be shown once. Read-outs that look alike come from different tables or passages of the source.

Legend:
monomeric CDK1 = target: T1, monomeric CDK1 (Homo sapiens, UniProt P06493); assay: Differential scanning fluorimetry (DSF), CDK1; type: binding; conditions: read-out: ΔTm CDK1
T1 construct: Full-length human CDK1 was expressed in insect cells either untagged (from pVL1393) or as a 3C-protease cleavable GST fusion; GST (N, cleaved yes); made in house; host or cells: insect cells (Sf9 baculovirus)
Procedure: (§1) The stability of the CDK1 and CDK2 inhibitor complexes were assessed by differential scanning fluorimetry (DSF) using a ViiA7 Real-Time PCR system (Applied Biosystems). Purified CDK1 (4 μM) and CDK2 (6 uM) in their respective gel filtration buffers were assayed in the presence of 10 μM inhibitor in 8% DMSO, in triplicate, in a 384-well plate. […] The resulting data was plotted and the inflection point (Tm) calculated using the Boltzmann equation in Applied Biosystems software.

CDK1-cyclin B [1] = conditions: read-out: IC50 Published measurements CDK1B; scintillation proximity assay; ref Whittaker et al., 2017; Byth et al., 2009; cited from earlier work
monomeric CDK2 = target: T2, monomeric CDK2 (Homo sapiens, UniProt P24941); assay: biochemical; type: binding; conditions: DSF; phosphorylated monomeric CDK2; 10 μM inhibitor
T2 construct: Human CDK2 (encompassing full length residues 1-298); GST (N, cleaved yes); made in house; host or cells: E. coli
Procedure: as §1

CDK1-cyclin B [2] = conditions: radiolabelled γ33P-ATP kinase assay, read-out: IC50 Published measurements CDK1B, cited from earlier work
CDK2-cyclin A [3] = target: T3, CDK2-cyclin A (Homo sapiens, UniProt P24941); assay: biochemical; design: Human CDK2 (encompassing full length residues 1-298); GST (N, cleaved yes); made in house; host or cells: E. coli; conditions: ADP-Glo, 20 μM ATP, 20 μM peptide, 1.5 nM CDK2-cyclin A
Procedure: (§2) Briefly, the 5 inhibitors in the study were titrated against phosphorylated CDK2–cyclin A and CDK1–cyclin B, with reaction initiated through addition of ATP and substrate peptide HHASPRK (Enzo Scientific). ATP to ADP conversion was assessed using the ADP-Glo assay (Promega) essentially as described by the manufacturers. […] Reactions were initiated by the addition of 20 μM ATP and 20 μM peptide. All activity assays were performed in triplicate in white low volume 384-well plates using a PheraStar plate reader (BMG).

[4] = target: T4, GST-tagged unphosphorylated CDK1 (Homo sapiens, UniProt P06493); assay: biochemical; type: binding; conditions: unphosphorylated monomeric GST-CDK1; 20°C; duplicate, ± SD; read-out: SPR Kd CDK1
T4 construct: Full-length human CDK1 was expressed in insect cells either untagged (from pVL1393) or as a 3C-protease cleavable GST fusion; made in house; host or cells: insect cells (Sf9 baculovirus)
Procedure: (§3) SPR ligand interactions assays were performed on a Biacore S200 (GE Healthcare Life Sciences) at 20°C using multi-cycle settings. GST-tagged unphosphorylated CDK1 and CDK2 were immobilised onto the surface of a CM5 chip pre-immobilised with anti-GST antibody, provided as part of the GST-capture kit (GE Healthcare Life Sciences, catalogue number BR100223) following the GST immobilisation kit instructions. As a control, recombinant GST was immobilised onto the designated control flow cell. […] Preceding injection of each compound, three cycles of buffer injections were carried out over all surfaces (30 μL/min for 60 s with 360 s dissociation). Compounds were then injected over all surfaces (from low to high concentration) for 60 s at 30 μL/min before being allowed to dissociate for 360 s to record dose-responses. […] The experiment was conducted in SPR running buffer (20 mM HEPES, 150 mM NaCl, 0.01% Tween-20®, 1% DMSO, pH 7.4) and used an 8-point DMSO solvent correction (preparation of DMSO in DMSO-free SPR buffer to final concentrations of: 0.2%, 0.4%, 0.6%, 0.8% 1%, 1.2%, 1.4%, 1.6%) to account for any bulk flow interactions.

[5] = target: T5, GST-tagged unphosphorylated CDK2 (Homo sapiens, UniProt P24941); assay: biochemical; type: binding; conditions: unphosphorylated monomeric GST-CDK2; 20°C; duplicate, ± SD; read-out: SPR Kd CDK2
T5 construct: Human CDK2 (encompassing full length residues 1-298); made in house; host or cells: E. coli BL21(DE3)STAR
Procedure: as §3

CDK2-cyclin A [6] = target: T3, CDK2-cyclin A; assay: biochemical; type: binding; design: Human CDK2 (encompassing full length residues 1-298); GST (N, cleaved yes); made in house; host or cells: E. coli (CDK2 and cyclin A2); conditions: phosphorylated CDK2-cyclin A complex; 30°C; n = 2, ± SD; read-out: ITC Kd CDK2A
Procedure: (§4) Individual protein samples were exchanged into ITC buffer (40 mM HEPES, 500 mM NaCl, 0.25 mM TCEP, pH 8.0) at 4°C using a Hitrap desalting column (GE Healthcare Life Sciences, Chicago, IL, USA) (i.e. CDK1 and cyclin B were not combined to form a complex prior to buffer exchange). Protein concentration was then determined at A280 nm using a Nanodrop 2000 (Thermoscientific, Waltham, MA, USA) and sequence derived extinction coefficients (http://web.expasy.org/protparam/). Proteins and compounds were degassed at 30°C directly before analysis. Compounds at 100 μM prepared in ITC buffer (40 mM HEPES, 500 mM NaCl, 0.25 mM TCEP, pH 8.0) and to a final DMSO concentration of 1% were titrated into 200 μL protein solutions prepared at 10 μM, 1% DMSO in the cell. All experiments used phosphorylated forms of CDK1 and CDK2 (on T161 or T160 respectively). For experiments carried out in the absence of cyclin, proteins were prepared on ice to a final concentration of 10 μM in ITC buffer and supplemented with 1% DMSO.

[7] = target: T6, phosphorylated monomeric CDK1 (Homo sapiens, UniProt P06493); assay: biochemical; type: binding; conditions: phosphorylated monomeric (cyclin-free) CDK1; 30°C; n = 2, ± SD; read-out: ITC Kd CDK1
T6 construct: Full-length human CDK1 was expressed in insect cells either untagged (from pVL1393) or as a 3C-protease cleavable GST fusion; GST (N, cleaved yes); made in house; host or cells: insect cells (Sf9 baculovirus)
Procedure: as §4

CDK1-cyclin B [8] = target: T7, CDK1-cyclin B (Homo sapiens, UniProt P06493); assay: biochemical; type: binding; conditions: phosphorylated CDK1-cyclin B complex; 30°C; n = 2, ± SD; read-out: ITC Kd CDK1B
T7 construct: Full-length human CDK1 was expressed in insect cells either untagged (from pVL1393) or as a 3C-protease cleavable GST fusion; GST (N, cleaved yes); made in house; host or cells: CDK1: insect cells (Sf9 baculovirus); cyclin B1: E. coli
Procedure: as §4

[9] = target: T8, phosphorylated monomeric CDK2 (Homo sapiens, UniProt P24941); assay: biochemical; type: binding; conditions: phosphorylated monomeric (cyclin-free) CDK2; 30°C; n = 2, ± SD; read-out: ITC Kd CDK2
T8 construct: Human CDK2 (encompassing full length residues 1-298); GST (N, cleaved yes); made in house; host or cells: E. coli
Procedure: as §4

CDK1-cyclin B [10] = target: T7, CDK1-cyclin B; assay: biochemical; conditions: ADP-Glo, 20 μM ATP, 20 μM peptide, 4 nM CDK1-cyclin B
Procedure: as §2

CDK2-cyclin A [11] = conditions: radiolabelled γ33P-ATP kinase assay; ref Lane et al., 2001; read-out: IC50 Published measurements CDK2A; cited from earlier work
[12] = DSF, phosphorylated monomeric CDK1, 10 μM inhibitor

T7 sequence (P06493 whole entry, the tested form may be a part): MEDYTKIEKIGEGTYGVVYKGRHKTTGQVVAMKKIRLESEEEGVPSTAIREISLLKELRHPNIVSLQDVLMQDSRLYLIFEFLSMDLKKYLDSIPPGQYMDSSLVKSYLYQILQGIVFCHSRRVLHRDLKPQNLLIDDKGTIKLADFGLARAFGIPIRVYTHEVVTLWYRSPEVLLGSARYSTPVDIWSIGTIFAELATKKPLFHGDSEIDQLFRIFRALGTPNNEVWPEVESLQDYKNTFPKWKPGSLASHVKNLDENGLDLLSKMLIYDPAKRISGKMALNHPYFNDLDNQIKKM
T7 sequence (P14635 with tags, fused parts or gaps C167S/C238S/C350S partner limits assumed): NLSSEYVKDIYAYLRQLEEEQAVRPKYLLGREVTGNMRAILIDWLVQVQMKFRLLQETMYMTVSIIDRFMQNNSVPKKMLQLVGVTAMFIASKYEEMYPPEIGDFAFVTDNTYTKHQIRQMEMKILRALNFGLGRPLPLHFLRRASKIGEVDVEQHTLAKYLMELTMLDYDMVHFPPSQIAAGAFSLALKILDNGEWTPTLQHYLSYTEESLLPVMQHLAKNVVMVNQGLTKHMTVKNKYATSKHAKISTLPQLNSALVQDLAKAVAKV
T1 sequence (P06493 whole entry, the tested form may be a part): as the sequence (P06493 whole entry, the tested form may be a part) above
T4 sequence (P06493 whole entry, the tested form may be a part): as above
T6 sequence (P06493 whole entry, the tested form may be a part): as above

## Cc1ncc(-c2ccnc(Nc3ccc(S(C)(=O)=O)cc3)n2)n1C(C)C [AZD5438]
Monomeric CDK1; [12]
  ΔTm at 10 µM: -2.6 °C
CDK1-cyclin B [1]
  IC50: 0.016 µM

## CN1CC[C@H](c2c(O)cc(O)c3c(=O)cc(-c4ccccc4Cl)oc23)[C@H](O)C1 [Alvocidib]
Monomeric CDK2
  ΔTm at 10 µM: 7.3 °C
Monomeric CDK1; [12]
  ΔTm at 10 µM: 0.9 °C
CDK1-cyclin B [2]; ref Whittaker et al., 2017, Asghar et al., 2015, Byth et al., 2009, Mariaule and Belmont, 2014, Kim et al., 2000
  IC50: […]

## CCn1cnc2c(Nc3cccc(Cl)c3)nc(NC3CCCCC3N)nc21 (stereo not shown) [CGP74514A]
Monomeric CDK2
  ΔTm at 10 µM: 5.2 °C
CDK2-cyclin A [3]; read-out: IC50 Lab measurements CDK2A
  IC50: 0.033 µM
CDK2-cyclin A [3]; read-out: Ki (in parenthesis) Lab measurements CDK2A
  Ki: 0.0183 µM
[4]
  Kd: 13.5 µM
[5]
  Kd: 0.312 ± 0.052 µM
Monomeric CDK1
  ΔTm at 10 µM: -3.3 °C
CDK1-cyclin B [2]; ref Imbach et al., 1999
  IC50: 0.025 µM
CDK2-cyclin A [6]
  Kd: 0.224 ± 0.014 µM
[7]
  Kd: > 20 µM
CDK1-cyclin B [8]
  Kd: 0.95 ± 0.05 µM
[9]
  Kd: 0.715 ± 0.015 µM
CDK1-cyclin B [10]; read-out: IC50 Lab measurements CDK1B
  IC50: 0.833 µM
CDK1-cyclin B [10]; read-out: Ki (in parenthesis) Lab measurements CDK1B
  Ki: 0.463 µM
